Test results reported in patent publication US3991202A, “Imidazolium salts” (Janssen Pharmaceutica N.V., priority 1974, dated 1976).
Read-outs that look alike come from different tables or passages of the source.

How the values were obtained:
Format in all cases: cell-based
[1] = test system: Cryptococcus neoformans; test: Antifungal growth inhibition in Sabouraud's liquid medium; settings: Cryptococcus neoformans, 336 h; Cr.n.; tested at 100, 10, 1 μg/ml; read-out: Concentrations in μg/ml for 100% Inhibition of Growth
Procedure: (§1) Tests for the control of fungal organisms were performed using Sabouraud's liquid medium (1 g. of neopeptone Difco and 2 g. of glucose Difco per 100 ml. distilled water) in test tubes, each containing 4.5 ml. of liquid medium, autoclaved at 120° C for 15 minutes. The imidazolium salts were prepared for testing by dissolving in 50% ethanol to a concentration of 20 mg./ml. and thereafter diluting with sterile distilled water to obtain a concentration of 10 mg./ml. Successive decimal dilutions were then made with sterile distilled water to prepare a series of test solutions. In carrying out the test, 0.5 ml. of one of the test solutions is added to 4.5 ml. of Sabouraud's liquid medium to obtain a test medium. In this manner, from appropriate test solution, test media containing 100 μg, 10 μg and 1 μg of imidazolium salt per milliliter of medium were obtained.
(§2) Control tubes were prepared by adding 0.5 ml. of sterile distilled water to 4.5 ml. of medium. Ethanol was also added to simulate the amount which would be present in the test media. Filamentous fungi were incubated at 25° C for two to three weeks. A square block of side 2 mm. was excised and inoculated into the liquid medium. A 3-day old culture on Sabouraud's liquid medium was used for yeasts. The inoculum was 0.05 ml. per tube. All cultures were incubated at 25° C for 14 days.

[2] = test system: Ctenomyces mentagrophytes; test: as above; settings: Trichophyton mentagrophytes, 336 h; Ct.m.; tested at 100, 10, 1 μg/ml; read-out: Concentrations in μg/ml for 100% Inhibition of Growth
Procedure: as §1, §2

[3] = test system: Microsporum canis; test: as above; settings: Microsporum canis, 336 h, M.c., read-out: Concentrations in μg/ml for 100% Inhibition of Growth
Procedure: as §1, §2

[4] = test system: Trichophyton rubrum; test: as above; settings: Trichophyton rubrum, 336 h; Tr.r.; tested at 100, 10, 1 μg/ml; read-out: Concentrations in μg/ml for 100% Inhibition of Growth
Procedure: as §1, §2

[5] = test system: Erysipelothrix insidiosa; test: Antibacterial growth inhibition in phenol red dextrose broth; settings: Erysipelothrix rhusiopathiae, 168 h; E. ins.; tested at 100, 10, 1 μg/ml; read-out: Concentration in μ g for 100% Growth Inhibition
Procedure: (§3) The tests on bacteria were performed on cultures on phenol red dextrose broth medium (Difco). By using decimal dilution techniques described for the tests for antifungal activity, test media containing 100 μg, 10 μg and 1 μg of imidazolium salt per milliliter of medium were obtained. The inoculum consisted of a platinum loop (5 mm diameter) from a 24 hour broth culture. Forty-eight hours after incubation, subcultures were made from each culture for the determination of antibacterial activity of the imidazolium salts. After seven days of incubation, observations were made to determine the presence or absence of bacterial growth.

[6] = test system: Escherichia coli; test: as above; settings: 168 h, E. coli, tested at 100, 10, 1 μg/ml, read-out: Concentration in μ g for 100% Growth Inhibition
Procedure: as §3

[7] = test system: Pseudomonas aeruginosa; test: as above; settings: 168 h, Ps. aer., tested at 100, 10, 1 μg/ml, read-out: Concentration in μ g for 100% Growth Inhibition
Procedure: as §3

[8] = test system: Salmonella pullorum gallinarum; test: as above; settings: Salmonella enterica, 168 h; Sp. G.; tested at 100, 10, 1 μg/ml; read-out: Concentration in μ g for 100% Growth Inhibition
Procedure: as §3

[9] = test system: Staphylococcus hemolyticus; test: as above; settings: 168 h, Staph., tested at 100, 10, 1 μg/ml, read-out: Concentration in μ g for 100% Growth Inhibition
Procedure: as §3

[10] = test system: Streptococcus pyogenes; test: as above; settings: 168 h, Strep., tested at 100, 10, 1 μg/ml, read-out: Concentration in μ g for 100% Growth Inhibition
Procedure: as §3

Row | MIC [1] [µg/mL] | MIC [2] [µg/mL] | MIC ([3]; tested at 100, 10, 1 μg/ml) [µg/mL] | MIC [4] [µg/mL] | MIC [5] [µg/mL] | MIC [6] [µg/mL] | MIC [7] [µg/mL] | MIC [8] [µg/mL] | MIC [10] [µg/mL] | MIC ([3]; growth observed at 100 μg/ml) [µg/mL] | Structure (SMILES) | MIC [9] [µg/mL]
1 | 10 | 1 | 10 | 1 | 1 | 10 | 100 | 10 | 1 | – | Cc1ccc(C[n+]2ccn(CC(OCc3ccc(Cl)cc3Cl)c3ccc(Cl)cc3Cl)c2)cc1C.[Cl-] (stereo not drawn) [CH2C6H33,4(CH3)2, 1-[2,4-Dichloro-β-(2,4-dichlorobenzyloxy)phenethyl]-3-(3,4-dimethylbenzyl)imidazolium chloride] | 1
2 | 10 | 1 | 1 | 1 | 1 | 10 | 100 | 10 | 1 | – | OC(C[n+]1ccn(CC(OCc2ccc(Cl)cc2Cl)c2ccc(Cl)cc2Cl)c1)c1ccc(Cl)cc1Cl.[Cl-] (stereo not drawn) [CH2CHOHC6H32,4(Cl)2, 1-[2,4-dichloro-β-(2,4-dichlorobenzyloxy)phenethyl]-3-(2,4dichloro-β-hydroxyphenethyl)imidazolium chloride] | 1
3 | 100 | 1 | – | 10 | 10 | 100 | 100 | 10 | 1 | > 100 | O=C(C[n+]1ccn(CC(OCc2ccc(Cl)cc2)c2ccc(Cl)cc2)c1)Nc1ccc(F)cc1 (stereo not drawn) [pClC6H4/CH2C6H4pCl/CH2CONHC6H4pF, 1-[p-Chloro-β-(p-chlorobenzyloxy)phenethyl]-3-[N-(p-fluorophenyl)carbamoylmethyl]imidazolium chloride] | 10
4 | 10 | 10 | 10 | 1 | 1 | 10 | 100 | 10 | 1 | – | Cc1ccc(OCC[n+]2ccn(CC(OCc3ccc(Cl)cc3Cl)c3ccc(Cl)cc3Cl)c2)cc1 (stereo not drawn) [(CH2)2OC6H4pCH3, 1-[2,4-dichloro-β-(2,4-dichlorobenzyloxy)phenethyl]-3-[2-(p-tolyoxy)ethyl]imidazolium bromide] | 1
5 | 10 | 1 | 1 | 1 | 1 | 10 | 100 | 10 | 1 | – | O=C(C[n+]1ccn(CC(OCc2ccc(Cl)cc2Cl)c2ccc(Cl)cc2Cl)c1)c1ccc(F)cc1.[Cl-] (stereo not drawn) [CH2COC6H4pF, 1-[2,4-dichloro-β-(2,4-dichlorobenzyloxy)phenethyl]-3-(p-fluorobenzoylmethyl)-imidazolium chloride] | 1
6 | 1 | 10 | 10 | 10 | 1 | 10 | 100 | 10 | 1 | – | O=C(C[n+]1ccn(CC(OCc2ccc(Cl)cc2Cl)c2ccc(Cl)cc2Cl)c1)Nc1ccc(Cl)cc1Cl (stereo not drawn) [CH2CONHC6H32,4(Cl)2, 1-[2,4-dichloro-β-(2,4-dichlorobenzyloxy)phenethyl]-3-[N-(2,4-dichlorophenyl)carbamoylmethyl]imidazolium chloride hydrate] | 1
7 | 1 | 1 | 10 | 1 | 1 | 10 | 100 | 10 | 1 | – | Cc1ccccc1NC(=O)C[n+]1ccn(CC(OCc2ccc(Cl)cc2Cl)c2ccc(Cl)cc2Cl)c1 (stereo not drawn) [CH2CONHC6H4oCH3, 1-[2,4-Dichloro-β-(2,4-dichlorobenzyloxy)phenethyl]-3-(N-o-tolylcarbamoylmethyl)imidazolium chloride] | 1
8 | 10 | 10 | 10 | 1 | 1 | 10 | 100 | 10 | 1 | – | Clc1ccc(COC(Cn2cc[n+](CCOc3ccccc3)c2)c2ccc(Cl)cc2Cl)c(Cl)c1.[Br-] (stereo not drawn) [(CH2)2OC6H5, 1-[2,4-dichloro-β-(2,4-dichlorobenzyloxy)phenethyl]-3-(2-phenoxyethyl)imidazolium bromide] | 1
